The structures appear in SMILES notation. Where two headings read alike, the source gives them in different places.

The experiment concerns HCV 1b genotype. As to the kind of experiment: HCV replicon assay (HCV-neo replicon cells, wild-type). The class given is cell-based, Hepatitis C virus. The note with it: HCV 1b genotype replicon. The method, then: An HCV Replicon assay was utilized in the present disclosure, and was prepared, conducted and validated as described in commonly owned PCT/US2006/022197 and in O'Boyle et al., Antimicrob. Agents Chemother, 49(4):1346-1353 (April 2005). Assay methods incorporating luciferase reporters have also been used as described (Apath.com).
HCV-neo replicon cells and replicon cells containing resistance substitutions in the NS5A region were used to test the currently described family of compounds.
The compounds were determined to have differing degrees of reduced inhibitory activity on cells containing mutations vs. the corresponding inhibitory potency against wild-type cells. Thus, the compounds of the present disclosure can be effective in inhibiting the function of the HCV NS5A protein and are understood to be as effective in combinations as previously described in application PCT/US2006/022197 and commonly owned WO 04/014852. It should be understood that the compounds of the present disclosure can inhibit multiple genotypes of HCV. […] In one embodiment, compounds of the present disclosure are inhibitory versus 1a, 1b, 2a, 2b, 3a, 4a, and 5a genotypes.

Where [1] appears, read: Hepatitis C virus, class symbol, read-out: EC50 Range against HCV 1b.
[2] abbreviates: Hepatitis C virus, read-out: EC50 1b.

Regarding `CC(C)(C)OC(=O)N1CCCC1(Cc1ccccc1)C(=O)N1CCC[C@H]1C(=O)Nc1ccc(-c2cnc(-c3ccc(NC(=O)[C@@H]4CCCN4C(=O)C4(Cc5ccccc5)CCCN4C(=O)OC(C)(C)C)cc3)o2)cc1` (stereo partly drawn) [Example D-33, di-tert-butyl 2,2′-(1,3-oxazole-2,5-diylbis(4,1-phenylenecarbamoyl(2S)-2,1-pyrrolidinediylcarbonyl))bis(2-benzyl-1-pyrrolidinecarboxylate)], the concentration giving a half-maximal response (EC50) (class symbol, read-out: EC50 Range against HCV 1b) was in the range of 1000 to 10000 nM.
As to `O=C(Nc1ccc(-c2cnc(-c3ccc(NC(=O)[C@@H]4CCCN4C(=O)[C@@H]4CCCN4)cc3)o2)cc1)[C@@H]1CCCN1C(=O)[C@@H]1CCCN1` [Example D-34, (2S,2′S)-N,N′-(1,3-oxazole-2,5-diyldi-4,1-phenylene)bis(1-((2S)-2-pyrrolidinylcarbonyl)-2-pyrrolidinecarboxamide)], under setting [1], the EC50 is 1000 to 10000 nM.
With `O=C(Nc1ccc(-c2cnc(-c3ccc(NC(=O)[C@@H]4CCCN4C(=O)[C@H]4CCCN4)cc3)o2)cc1)[C@@H]1CCCN1C(=O)[C@H]1CCCN1` [Example D-35, (2S,2′S)-N,N′-(1,3-oxazole-2,5-diyldi-4,1-phenylene)bis(1-((2R)-2-pyrrolidinylcarbonyl)-2-pyrrolidinecarboxamide)], the EC50 under setting [1] lay in the range of 1000 to 10000 nM and the EC50 under setting [2] is 5240 nM.
With `CC1(C(=O)N2CCC[C@H]2C(=O)Nc2ccc(-c3cnc(-c4ccc(NC(=O)[C@@H]5CCCN5C(=O)C5(C)CCCN5)cc4)o3)cc2)CCCN1` (stereo partly drawn) [Example D-36, (2S,2′S)-N,N′-(1,3-oxazole-2,5-diyldi-4,1-phenylene)bis(1-((2-methyl-2-pyrrolidinyl)carbonyl)-2-pyrrolidinecarboxamide)], the EC50 under setting [1] is 1000 to 10000 nM.
For the compound `O=C(Nc1ccc(-c2cnc(-c3ccc(NC(=O)[C@@H]4CCCN4C(=O)C4(Cc5ccccc5)CCCN4)cc3)o2)cc1)[C@@H]1CCCN1C(=O)C1(Cc2ccccc2)CCCN1` (stereo partly drawn) [Example D-37, (2S,2′S)-N,N′-(1,3-oxazole-2,5-diyldi-4,1-phenylene)bis(1-((2-benzyl-2-pyrrolidinyl)carbonyl)-2-pyrrolidinecarboxamide)], the EC50 under setting [1] lay within 1000 to 10000 nM.
Consider `CN(C)[C@@H](C(=O)N1CCC[C@H]1C(=O)N1CCC[C@H]1C(=O)Nc1ccc(-c2cnc(-c3ccc(NC(=O)[C@@H]4CCCN4C(=O)[C@@H]4CCCN4C(=O)[C@@H](c4ccccc4)N(C)C)cc3)o2)cc1)c1ccccc1` [Example D-38, (2S,2′S)-N,N′-(1,3-oxazole-2,5-diyldi-4,1-phenylene)bis(1-(((2S)-1-((2R)-2-(dimethylamino)-2-phenylacetyl)-2-pyrrolidinyl)carbonyl)-2-pyrrolidinecarboxamide)], for which the EC50 was 100 to 999 nM under setting [1] and 110 nM under setting [2].
For the compound `CN(C)[C@@H](C(=O)N1CCC[C@@H]1C(=O)N1CCC[C@H]1C(=O)Nc1ccc(-c2cnc(-c3ccc(NC(=O)[C@@H]4CCCN4C(=O)[C@H]4CCCN4C(=O)[C@@H](c4ccccc4)N(C)C)cc3)o2)cc1)c1ccccc1` [Example D-39, (2S,2′S)-N,N′-(1,3-oxazole-2,5-diyldi-4,1-phenylene)bis(1-(((2R)-1-((2R)-2-(dimethylamino)-2-phenylacetyl)-2-pyrrolidinyl)carbonyl)-2-pyrrolidinecarboxamide)], the EC50 under setting [1] lay within 1000 to 10000 nM.
Consider `CN(C)[C@@H](C(=O)N1[C@H](C(=O)N2CCC[C@H]2C(=O)Nc2ccc(-c3cnc(-c4ccc(NC(=O)[C@@H]5CCCN5C(=O)[C@@H]5C[C@@H]6C[C@@H]6N5C(=O)[C@@H](c5ccccc5)N(C)C)cc4)o3)cc2)C[C@@H]2C[C@@H]21)c1ccccc1` [Example D-40, (2S,2′S)-N,N′-(1,3-oxazole-2,5-diyldi-4,1-phenylene)bis(1-(((1S,3S,5S)-2-((2R)-2-(dimethylamino)-2-phenylacetyl)-2-azabicyclo[3.1.0]hex-3-yl)carbonyl)-2-pyrrolidinecarboxamide)], for which the EC50 under setting [1] was 100 to 999 nM.

Broadly, the EC50 is the concentration giving half of the maximal effect.

For the origin of these results see patent US8735398B2 (Bristol-Myers Squibb Company, priority 2009, dated 2014).
